# Experimental data as given in US6544991B2, “Compositions and methods for treating bacterial infections” (priority 2000, dated 2003).
# Like-named read-outs stand apart in the source and are kept apart here.
# Tests used:
# [1] = system: MRSA strains; test: MIC by agar dilution or microbroth dilution method (NCCLS); assay type: cell-based, Staph. aureus; details: for MIC: Staphylococcus aureus
# Description: (§1) Bacterial isolates were obtained from human infections. The isolates were maintained frozen in a liquid nitrogen freezer and plated on Trypticase Soy Agar (TSA) plates supplemented with 5% sheep blood. The quality control strain Staph. aureus 29213 was originally acquired from the American Type Culture Collection (Rockville, Md.).
# (§2) MICs were determined by an agar dilution method or microbroth dilution method recommended by NCCLS. Synergy was assessed by agar dilution checker-board method. Minimal inhibitory concentrations (MICS) for each separate drug were determined. The fractional inhibitory concentration (FIC) values were calculated by the MIC of Drug A (e.g., sulbactam/ampicillin) and Drug B (e.g., linezolid or arbekacin) in combination/MIC of Drug A or B alone. The FIC index was determined according to the following formula: [formula]
# [2] = system: VRSA strains; test: MIC by agar dilution or microbroth dilution method (NCCLS), VRSA strains; assay type: cell-based, Staph. aureus; details: VRSA strains (n = 10)
# Description: as §1, §2
# In total, 48 MRSA strains were tested, including ten VRSA strains isolated from five different countries in the world, 33 MRSA strains isolated from ten Japanese university hospitals, and five MRSA type strains from Juntendo University, Department of Bacteriology, Tokyo, Japan.
# [3] = system: Staph. aureus 29213; test: MIC, quality control strain; assay type: cell-based; details: Staphylococcus aureus
# Description: as §1, §2
compound,measurement,setting,value
"CN[C@H](CC(C)C)C(=O)N[C@H]1C(=O)N[C@@H](CC(N)=O)C(=O)N[C@H]2C(=O)N[C@H]3C(=O)N[C@H](C(=O)N[C@H](C(=O)O)c4cc(O)cc(O)c4-c4cc3ccc4O)[C@H](O)c3ccc(c(Cl)c3)Oc3cc2cc(c3O[C@@H]2O[C@H](CO)[C@@H](O)[C@H](O)[C@H]2O[C@H]2C[C@](C)(N)[C@H](O)[C@H](C)O2)Oc2ccc(cc2Cl)[C@H]1O [VCM, vancomycin]",MICs Range,[1]; MRSA strains (n = 38),0.5 to 2 mg/L
same,MIC,"[1]; MRSA / NCTC 10442, read-out: MIC Values, strain NCTC 10442",1 µg/mL
same,MIC,"[1]; MRSA, read-out: MIC Values, strain 85/2082",1 µg/mL
same,MIC,"[1]; MRSA, read-out: MIC Values, strain 99.3700W",2 µg/mL
same,MIC,"[1]; MRSA, read-out: MIC Values, strain 99.3759V",2 µg/mL
same,MIC,"[1]; MRSA, read-out: MIC Values, strain AMC 11094",4 µg/mL
same,MIC,"[1]; MRSA, read-out: MIC Values, strain BM12612(new)",2 µg/mL
same,MIC,"[1]; MRSA, read-out: MIC Values, strain H1",0.5 µg/mL
same,MIC,"[1]; MRSA, read-out: MIC Values, strain HIP 5827",4 µg/mL
same,MIC,"[1]; MRSA, read-out: MIC Values, strain HIP 5836",4 µg/mL
same,MIC,"[1]; MRSA, read-out: MIC Values, strain HIP 6297",2 µg/mL
same,MIC,"[1]; MRSA, read-out: MIC Values, strain HIP 7737",4 µg/mL
same,MIC,"[1]; MRSA, read-out: MIC Values, strain JSCC 340",1 µg/mL
same,MIC,"[1]; MRSA, read-out: MIC Values, strain JSCC 351",1 µg/mL
same,MIC,"[1]; MRSA, read-out: MIC Values, strain JSCC 363",1 µg/mL
same,MIC,"[1]; MRSA, read-out: MIC Values, strain JSCC 381",1 µg/mL
same,MIC,"[1]; MRSA, read-out: MIC Values, strain JSCC 390",1 µg/mL
same,MIC,"[1]; MRSA, read-out: MIC Values, strain JSCC 401",1 µg/mL
same,MIC,"[1]; MRSA, read-out: MIC Values, strain JSCC 413",1 µg/mL
same,MIC,"[1]; MRSA, read-out: MIC Values, strain JSCC 431",0.5 µg/mL
same,MIC,"[1]; MRSA, read-out: MIC Values, strain JSCC 440",1 µg/mL
same,MIC,"[1]; MRSA, read-out: MIC Values, strain JSCC 451",1 µg/mL
same,MIC,"[1]; MRSA, read-out: MIC Values, strain JSCC 463",1 µg/mL
same,MIC,"[1]; MRSA, read-out: MIC Values, strain JSCC 481",1 µg/mL
same,MIC,"[1]; MRSA, read-out: MIC Values, strain JSCC 490",1 µg/mL
same,MIC,"[1]; MRSA, read-out: MIC Values, strain JSCC 501",1 µg/mL
same,MIC,"[1]; MRSA, read-out: MIC Values, strain JSCC 513",1 µg/mL
same,MIC,"[1]; MRSA, read-out: MIC Values, strain JSCC 531",1 µg/mL
same,MIC,"[1]; MRSA, read-out: MIC Values, strain JSCC 540",1 µg/mL
same,MIC,"[1]; MRSA, read-out: MIC Values, strain JSCC 551",0.5 µg/mL
same,MIC,"[1]; MRSA, read-out: MIC Values, strain JSCC 563",1 µg/mL
same,MIC,"[1]; MRSA, read-out: MIC Values, strain JSCC 581 (lacks the mecA gene)",1 µg/mL
same,MIC,"[1]; MRSA, read-out: MIC Values, strain JSCC 590 (lacks the mecA gene)",1 µg/mL
same,MIC,"[1]; MRSA, read-out: MIC Values, strain JSCC 601",0.5 µg/mL
same,MIC,"[1]; MRSA, read-out: MIC Values, strain JSCC 640",1 µg/mL
same,MIC,"[1]; MRSA, read-out: MIC Values, strain JSCC 651",1 µg/mL
same,MIC,"[1]; MRSA, read-out: MIC Values, strain JSCC 663",1 µg/mL
same,MIC,"[1]; MRSA, read-out: MIC Values, strain JSCC 681",1 µg/mL
same,MIC,"[1]; MRSA, read-out: MIC Values, strain JSCC 690",1 µg/mL
same,MIC,"[1]; MRSA, read-out: MIC Values, strain JSCC 701",1 µg/mL
same,MIC,"[1]; MRSA, read-out: MIC Values, strain JSCC 713",2 µg/mL
same,MIC,"[1]; MRSA, read-out: MIC Values, strain JSCC 731",0.5 µg/mL
same,MIC,"[1]; MRSA, read-out: MIC Values, strain JSCC 740",0.5 µg/mL
same,MIC,"[1]; MRSA, read-out: MIC Values, strain JSCC 751",0.5 µg/mL
same,MIC,"[1]; MRSA, read-out: MIC Values, strain JSCC 763",0.5 µg/mL
same,MIC,"[1]; MRSA, read-out: MIC Values, strain JSCC 781",2 µg/mL
same,MIC,"[1]; MRSA, read-out: MIC Values, strain JSCC 870",1 µg/mL
same,MIC,"[1]; MRSA, read-out: MIC Values, strain LIM 2",2 µg/mL
same,MIC,"[1]; MRSA, read-out: MIC Values, strain Mu 3",1 µg/mL
same,MIC,"[1]; MRSA, read-out: MIC Values, strain Mu 50",4 µg/mL
same,MIC,"[1]; MRSA, read-out: MIC Values, strain N315",0.5 µg/mL
same,MICs Range,[2],2 to 4 mg/L
same,MIC,"[3]; ATCC29213, read-out: MIC Values, strain ATCC 29213, control sample (Ex. 26)",1 µg/mL
same,MIC,"[3]; ATCC29213, read-out: MIC Values, strain ATCC29213, control sample (Ex. 37)",0.5 µg/mL
